# Data: PubChem BioAssay AID1963967 (Molecular Pharmacology Branch, DTP, NCI, 2024)
# Tested on: 855422-203-R-J1-PDC spheroids with HUVEC/MSC, viability
# Assay: Anticancer human tumor 855422-203-R-J1-PDC patient-derived bladder carcinoma cell line growth inhibition [PI3K]
# Settings: for IC50: curve of first compound; for viability, T/C: stronger effect = lower value
# Source text: Combinatorial screen of targeted agents with the PI3K inhibitors inavolisib, alpelisib, duvelisib, and copanlisib in multi-cell type tumor spheroids
# A high-throughput screen of multi-cell type tumor spheroids was designed to identify active combinations of targeted small molecules and PI3K pathway inhibitors. Complex spheroids include a stromal component modeled by human endothelial cells (HUVEC) and fibroblasts modeled by human mesenchymal stem cells (MSCs). The concentration ranges selected for each drug and investigational agent were based upon clinically achievable concentrations if the clinical Cmax of the agent was known.
# Compounds. The drugs and investigational agents: inavolisib (NSC800729), alpelisib (NSC765974), duvelisib (NSC772469), copanlisib (NSC816437), ipatasertib (NSC767898), afuresertib (NSC778305), talazoparib (NSC767125), sapanisertib (NSC764658), selumetinib (NSC741078), tovorafenib (DAY101, NSC766906), vemurafenib (NSC761431), ravoxertinib (NSC781343), sotorasib (NSC818433), MRTX1133 (NSC 836407), abemaciclib (NSC 768073), palbociclib (NSC758247), venetoclax (NSC 766270), SY5609 (NSC837396), enzalutamide (NSC755605), and darolutamide (NSC825331), were obtained from the National Cancer Institute (NCI) Developmental Therapeutics Program Chemical Repository. The FDA-approved anticancer drug set is available from the NCI Developmental Therapeutics Program. […] The stock solutions were prepared in dimethyl sulfoxide (DMSO, Sigma-Aldrich, St. Louis, MO, cat. D2650) at 800-fold the tested concentration and stored at -70 degrees C prior to their use. All drugs and investigational agents were tested over a range starting from a high concentration at or near the clinical Cmax and decreasing in half-log increments. If the clinical Cmax for an agent had not been determined, the highest concentration tested was 10 microM.
# Cell Culture. All cells were maintained in an incubator at 37 degrees C and 5% CO2 with 95% humidity. The PDC lines were cultured according to standard operating procedures established by the NCI PDMR (https://pdmr.cancer.gov/sops/default.htm). All PDCs were thawed and cultured in Matrigel-coated flasks prepared with a working solution of 1X Ham's F-12 nutrient mix, without supplementation (Invitrogen, Waltham, MA, cat. 11765054), 100 U/mL penicillin-streptomycin (Invitrogen, cat. 15140122), and 2.5% Matrigel (Corning Inc., Corning, NY, cat. 354248) for the first three passages. The 354836-022-R-J1-PDC, 475296-252-R-J1-PDC, and 997726-040-R-J2-PDC lines were cultured in 6A media, which includes advanced DMEM/F-12 (Thermo Fisher Scientific, cat. 12634028), 10 mM HEPES (Thermo Fisher Scientific, cat. 15630080), 1X GlutaMAX supplement (Thermo Fisher Scientific, cat. 35050061), 0.1 mg/mL primocin (InvivoGen, San Diego, CA, cat. ant-pm-2), 10% defined fetal bovine serum, heat inactivated (HyClone Laboratories Inc., Logan, UT, cat. SH30070.03HI), 50% L-WRN conditioned media (ATCC, cat. CRL-3276), 1.25 mM N-Acetyl-L-cysteine (Sigma-Aldrich, cat. A9165), 10 mM nicotinamide (Sigma-Aldrich, cat. N0636), 1X B-27 supplement (Thermo Fisher Scientific, cat. 17504044), 1X N-2 supplement (Thermo Fisher Scientific, cat. 17502048), and 10 microM Y-27632 dihydrochloride (Tocris Bioscience, Bristol, United Kingdom, cat. 1254). The 624824-186-R-J2-PDC line was cultured in 6C/Colon 1B media, which includes all 6A media components plus 50 ng/mL human EGF recombinant protein (Thermo Fisher Scientific, cat. PHG0311). […]
# [1] = second compound 0.0316 µM, first compound 0.0316 µM
# [2] = second compound 0.0316 µM, first compound 0.1 µM
# [3] = second compound 0.1 µM, first compound 0.0316 µM
# [4] = second compound 0.1 µM, first compound 0.1 µM
# [5] = second compound 0.316 µM, first compound 0.0316 µM
# [6] = second compound 0.316 µM, first compound 0.1 µM
# [7] = second compound 1 µM, first compound 0.0316 µM
# [8] = second compound 1 µM, first compound 0.1 µM
# 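Note: agents incubated with spheroids for one week before read-out.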
# 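Throughout, for viability, T/C: 100% = DMSO vehicle-treated control wells.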
compound,measurement,setting,value
CC(=O)c1c(C)c2cnc(Nc3ccc(N4CCNCC4)cn3)nc2n(C2CCCC2)c1=O + Cc1nc(NC(=O)N2CCCC2C(N)=O)sc1-c1ccnc(C(C)(C)C(F)(F)F)c1,IC50,second compound 0.0316 µM,> 100 nM
same,IC50,second compound 0.1 µM,> 100 nM
same,IC50,second compound 0.316 µM,> 100 nM
same,IC50,second compound 1 µM,51.7 nM
same,IC50,second compound 3.16 µM,< 0.316 nM
same,IC50,second compound 10 µM,< 0.316 nM
same,"viability, T/C","second compound 0.0316 µM, first compound 0.000316 µM",103%
same,"viability, T/C","second compound 0.0316 µM, first compound 0.001 µM",94.1%
same,"viability, T/C","second compound 0.0316 µM, first compound 0.00316 µM",111%
same,"viability, T/C","second compound 0.0316 µM, first compound 0.01 µM",112%
same,"viability, T/C",[1],102%
same,"viability, T/C",[2],85.3%
same,"viability, T/C","second compound 0.1 µM, first compound 0.000316 µM",106%
same,"viability, T/C","second compound 0.1 µM, first compound 0.001 µM",97.8%
same,"viability, T/C","second compound 0.1 µM, first compound 0.00316 µM",109%
same,"viability, T/C","second compound 0.1 µM, first compound 0.01 µM",98.3%
same,"viability, T/C",[3],96.3%
same,"viability, T/C",[4],76.7%
same,"viability, T/C","second compound 0.316 µM, first compound 0.000316 µM",91.7%
same,"viability, T/C","second compound 0.316 µM, first compound 0.001 µM",92.5%
same,"viability, T/C","second compound 0.316 µM, first compound 0.00316 µM",97.3%
same,"viability, T/C","second compound 0.316 µM, first compound 0.01 µM",90.7%
same,"viability, T/C",[5],90.9%
same,"viability, T/C",[6],58%
same,"viability, T/C","second compound 1 µM, first compound 0.000316 µM",69.4%
same,"viability, T/C","second compound 1 µM, first compound 0.001 µM",78.2%
same,"viability, T/C","second compound 1 µM, first compound 0.00316 µM",72.8%
same,"viability, T/C","second compound 1 µM, first compound 0.01 µM",75.5%
same,"viability, T/C",[7],60.5%
same,"viability, T/C",[8],33%
same,"viability, T/C","second compound 3.16 µM, first compound 0.000316 µM",44.1%
same,"viability, T/C","second compound 3.16 µM, first compound 0.001 µM",46.9%
same,"viability, T/C","second compound 3.16 µM, first compound 0.00316 µM",42.7%
same,"viability, T/C","second compound 3.16 µM, first compound 0.01 µM",41.3%
same,"viability, T/C","second compound 3.16 µM, first compound 0.0316 µM",34.5%
same,"viability, T/C","second compound 3.16 µM, first compound 0.1 µM",18.2%
same,"viability, T/C","second compound 10 µM, first compound 0.000316 µM",25.3%
same,"viability, T/C","second compound 10 µM, first compound 0.001 µM",24%
same,"viability, T/C","second compound 10 µM, first compound 0.00316 µM",24.1%
same,"viability, T/C","second compound 10 µM, first compound 0.01 µM",23%
same,"viability, T/C","second compound 10 µM, first compound 0.0316 µM",19.3%
same,"viability, T/C","second compound 10 µM, first compound 0.1 µM",10.7%
CNC(=O)c1ccc(N2C(=S)N(c3ccc(C#N)c(C(F)(F)F)c3)C(=O)C2(C)C)cc1F + CC(Nc1ccc2c(c1)OCCn1cc(N3C(=O)OCC3C(F)F)nc1-2)C(N)=O,IC50,second compound 0.00316 µM,> 10000 nM
same,IC50,second compound 0.01 µM,> 10000 nM
same,IC50,second compound 0.0316 µM,> 10000 nM
same,IC50,second compound 0.1 µM,> 10000 nM
same,IC50,second compound 0.316 µM,265 nM
same,IC50,second compound 1 µM,< 31.6 nM
same,"viability, T/C","second compound 0.00316 µM, first compound 0.0316 µM",106%
same,"viability, T/C","second compound 0.00316 µM, first compound 0.1 µM",83.8%
same,"viability, T/C","second compound 0.00316 µM, first compound 0.316 µM",95.8%
same,"viability, T/C","second compound 0.00316 µM, first compound 1 µM",81.2%
same,"viability, T/C","second compound 0.00316 µM, first compound 3.16 µM",72.9%
same,"viability, T/C","second compound 0.00316 µM, first compound 10 µM",65.4%
same,"viability, T/C","second compound 0.01 µM, first compound 0.0316 µM",102%
same,"viability, T/C","second compound 0.01 µM, first compound 0.1 µM",91.2%
same,"viability, T/C","second compound 0.01 µM, first compound 0.316 µM",90%
same,"viability, T/C","second compound 0.01 µM, first compound 1 µM",77.3%
same,"viability, T/C","second compound 0.01 µM, first compound 3.16 µM",79%
same,"viability, T/C","second compound 0.01 µM, first compound 10 µM",72.5%
same,"viability, T/C",[1],86.6%
same,"viability, T/C",[2],82.1%
same,"viability, T/C","second compound 0.0316 µM, first compound 0.316 µM",79.9%
same,"viability, T/C","second compound 0.0316 µM, first compound 1 µM",66.6%
same,"viability, T/C","second compound 0.0316 µM, first compound 3.16 µM",72.8%
same,"viability, T/C","second compound 0.0316 µM, first compound 10 µM",64.3%
same,"viability, T/C",[3],76.9%
same,"viability, T/C",[4],76.7%
same,"viability, T/C","second compound 0.1 µM, first compound 0.316 µM",83.3%
same,"viability, T/C","second compound 0.1 µM, first compound 1 µM",63.1%
same,"viability, T/C","second compound 0.1 µM, first compound 3.16 µM",62%
same,"viability, T/C","second compound 0.1 µM, first compound 10 µM",52.8%
same,"viability, T/C",[5],51.4%
same,"viability, T/C",[6],46.9%
same,"viability, T/C","second compound 0.316 µM, first compound 0.316 µM",53.6%
same,"viability, T/C","second compound 0.316 µM, first compound 1 µM",49.1%
same,"viability, T/C","second compound 0.316 µM, first compound 3.16 µM",52.7%
same,"viability, T/C","second compound 0.316 µM, first compound 10 µM",43.1%
same,"viability, T/C",[7],37.2%
same,"viability, T/C",[8],36.4%
same,"viability, T/C","second compound 1 µM, first compound 0.316 µM",37%
same,"viability, T/C","second compound 1 µM, first compound 1 µM",41.3%
same,"viability, T/C","second compound 1 µM, first compound 3.16 µM",38.5%
same,"viability, T/C","second compound 1 µM, first compound 10 µM",33.8%
